Laboratory results published in PubChem BioAssay AID1919007 (Molecular Pharmacology Branch, DTP, NCI, 2023).
Several values for one entry are separate records, joined by “and”; a condition that tells them apart may be missing. Identical values can stand only once.

Tested on: A498 complex spheroids with HUVEC/MSC, growth
Experiment: Anticancer human tumor A498 cell line growth inhibition [AhR];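 note: seven day exposure starting three days after spheroid seeding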;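 for viability, T/C: luminescence signal used as a surrogate for viable cells; luminescence viability scaled so 100% equals DMSO vehicle wells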
Conditions: for viability, T/C: stronger effect = lower value
Description: Multicellular complex tumor spheroid response to aryl hydrocarbon receptor antagonists in combination with a variety of drugs and investigational agents in selected tumor cell lines
The current study was undertaken to assess response to aryl hydrocarbon receptor antagonists in combination with standard-of-care drugs and investigational agents in solid tumor complex spheroid models. Complex spheroids include a stromal component modeled by human endothelial cells (HUVEC) and fibroblasts modeled by human mesenchymal stem cells (MSCs). The concentration ranges selected for each drug and investigational agent were based upon clinically achievable concentrations if the clinical Cmax of the agent was known.
Compounds. The drugs and investigational agents: BAY 2416964 (NSC825713), GNF351 (NSC835774), CH-223191 (NSC835775), CPI-455 (NSC825282), aza-TdCyd (NSC777586), decitabine (NSC127716), belinostat (NSC758774), entinostat (NSC756642), pevonedistat (NSC761192), tazemetostat (NSC777109), talazoparib (NSC765396), olaparib (NSC753686), selinexor (NSC780203), nedisertib (M3814, NSC802822), bortezomib (NSC756655), venetoclax (NSC766270), doxorubicin (NSC123127), elimusertib (BAY189344, NSC800525), ceralasertib (AZD6738, NSC777638), TAK-243 (NSC785004), alisertib (NSC759677), etoposide (NSC141540), topotecan (NSC609699), eribulin (NSC707389), gemcitabine (NSC613327), carboplatin (NSC241240), cisplatin (NSC119875), and SN-38 (NSC673596) were obtained from the National Cancer Institute (NCI) Developmental Therapeutics Program Chemical Repository (32). The FDA-approved anticancer drug set is available from the Developmental Therapeutics Program at https://dtp.cancer.gov/organization/dscb/obtaining/available plates.htm. […] The stock solutions were prepared in dimethyl sulfoxide (DMSO, Sigma-Aldrich, St. Louis, MO, cat. D2650), except for the platinum compounds which were prepared in saline (Quality Biological, Gaithersburg, MD, cat. 114-055-101), at 800-fold the tested concentration and stored at -70 degrees C prior to their use. All drugs and investigational agents were tested over a range starting from a high concentration at or near the clinical Cmax and decreasing in half-log increments. If the clinical Cmax for an agent had not been determined, the highest concentration tested was 10 microM (Table 1).
Cell Culture. All cells were maintained in an incubator at 37 degrees C and 5% CO2 with 95% humidity. The PDC lines were cultured according to standard operating procedures established by the NCI PDMR (https://pdmr.cancer.gov). Briefly, all PDCs were thawed and cultured in Matrigel-coated flasks prepared with a working solution of 1X Ham's F-12 nutrient mix, without supplementation (Invitrogen, Waltham, MA, cat. 11765054), 100 U/mL penicillin-streptomycin (Invitrogen, cat. 15140122), and 2.5% Matrigel (Corning Inc., Corning, NY, cat. 354248) for the first three passages. All PDCs were cultured in complete DMEM/F-12 media containing advanced DMEM/F-12 (Invitrogen, cat. 12634028), 4.9% defined fetal bovine serum, heat inactivated (HyClone Laboratories Inc., Logan, UT, cat. SH30070.03HI), 389 ng/mL hydrocortisone (Sigma-Aldrich, cat. H4001), 9.7 ng/mL human EGF recombinant protein (Invitrogen, cat. PHG0313), 23.4 microg/mL adenine (Sigma-Aldrich, cat. A2786), 97.3 U/mL penicillin-streptomycin (Invitrogen, cat. 15140122), 1.9 mM L-glutamine (Invitrogen, cat. 25030081), and 9.7 microM Y-27632 dihydrochloride (Tocris Bioscience, Bristol, United Kingdom, cat. 1254). The PDCs were cultured in complete DMEM/F12 media without 10 microM Y-27632 dihydrochloride for at least two passages prior to the screen. The established cell lines NCI-H1341 and […] were cultured in DMEM/F-12, HEPES (Invitrogen, cat. 11330032), 5% defined fetal bovine serum (HyClone Laboratories Inc., cat. SH30070.03), ITS premix universal culture supplement [insulin (5 microg/mL), transferrin (5 microg/mL), and selenious acid (5 ng/mL)] […]

Structure (SMILES) | IC50 (curve of compound) | viability, T/C (compound 0.0316 µM) | viability, T/C (compound 0.1 µM) | viability, T/C (compound 0.316 µM) | viability, T/C (compound 1 µM) | viability, T/C (compound 3.16 µM) | viability, T/C (compound 10 µM) | further results
CC(C)CC(NC(=O)C(Cc1ccccc1)NC(=O)c1cnccn1)B(O)O (stereo unspecified) | 0.0057 µM and 0.00575 µM and 0.00357 µM |  |  |  |  |  |  | viability, T/C (compound 0.000949 µM): 103% and 105% and 98.6%; viability, T/C (compound 0.003 µM): 106% and 99.9% and 58.5%; viability, T/C (compound 0.00949 µM): 6.74% and 11.6% and 2.52%; viability, T/C (compound 0.03 µM): 1.23% and 2.41% and 0.68%; viability, T/C (compound 0.0949 µM): 0.52% and 1.47% and 1.32%; viability, T/C (compound 0.3 µM): 0.53% and 0.64% and 0.32%
CC(C)c1c(-c2ccccc2)nc2c(C#N)c[nH]n2c1=O | > 10 µM | 109% and 96.5% and 102% | 113% and 109% and 96% | 104% and 105% and 96.3% | 99.8% and 104% and 97.1% | 102% (2×) and 98.6% | 106% and 112% and 96.8% | 
CC(CO)NC(=O)c1cc(-c2ccc(Cl)cc2)nn(-c2cnn(C)c2)c1=O (stereo unspecified) |  |  | 92.3% [middle of 20 runs] | 90.5% [middle of 21 runs] | 85.9% [middle of 21 runs] | 83.2% [middle of 19 runs] | 68.4% [middle of 19 runs] | IC50 (compound alone, run of 08/08/2022): > 10 µM
CC1(C)CCC(CN2CCN(c3ccc(C(=O)NS(=O)(=O)c4ccc(NCC5CCOCC5)c([N+](=O)[O-])c4)c(Oc4cnc5[nH]ccc5c4)c3)CC2)=C(c2ccc(Cl)cc2)C1 | 6.01 µM and > 10 µM and 6.17 µM | 99.2% and 106% and 101% | 115% and 103% and 98.6% | 96.3% and 101% and 95.3% | 86.8% and 94.5% and 92.4% | 80.8% and 86% and 84.5% | 28.3% and 56.8% and 25.5% | 
CC1COCCN1c1cc(-c2ccnn2C)c2ccnc(-c3ccn[nH]3)c2n1 (stereo unspecified) | 0.167 µM and 0.121 µM and 0.0909 µM | 95.7% and 68.2% and 82.7% | 64.3% and 61.4% and 47.2% | 32.3% and 25.7% and 21% | 22.3% and 15.8% and 13.9% |  |  | viability, T/C (compound 0.00316 µM): 108% and 93.8% and 98.7%; viability, T/C (compound 0.01 µM): 111% and 87.4% and 102%
CC1COCCN1c1cc(C2(S(C)(=N)=O)CC2)nc(-c2ccnc3[nH]ccc23)n1 (stereo unspecified) | 4.68 µM and 2.57 µM and 2.07 µM | 106% and 101% (2×) | 111% and 103% and 107% | 104% and 99.8% and 95.7% | 92.2% and 72.5% and 72.7% | 61% and 46.5% and 37% | 29% and 24.8% and 19.5% | 
CCN(c1cc(-c2ccc(CN3CCOCC3)cc2)cc(C(=O)NCc2c(C)cc(C)[nH]c2=O)c1C)C1CCOCC1 | > 3 µM |  |  |  |  |  |  | viability, T/C (compound 0.00949 µM): 105% and 107% and 106%; viability, T/C (compound 0.03 µM): 106% (2×) and 107%; viability, T/C (compound 0.0949 µM): 107% and 109% and 106%; viability, T/C (compound 0.3 µM): 102% (2×) and 97.8%; viability, T/C (compound 0.949 µM): 101% and 104% and 108%; viability, T/C (compound 3 µM): 103% and 104% and 110%
CC[C@@]1(O)C(=O)OCc2c1cc1n(c2=O)Cc2cc3c(CN(C)C)c(O)ccc3nc2-1 | > 0.1 µM | 79.8% and 82.3% and 85.8% | 73.1% and 85% and 66.5% |  |  |  |  | viability, T/C (compound 0.000316 µM): 97.9% and 107% and 110%; viability, T/C (compound 0.001 µM): 103% and 111% and 112%; viability, T/C (compound 0.00316 µM): 112% and 102% (2×); viability, T/C (compound 0.01 µM): 86.9% and 93.3% and 98.7%
CCc1c2c(nc3ccc(O)cc13)-c1cc3c(c(=O)n1C2)COC(=O)[C@]3(O)CC | 0.0511 µM and 0.109 µM and 0.0219 µM |  |  |  |  |  |  | viability, T/C (compound 0.000949 µM): 87% and 101% and 90.7%; viability, T/C (compound 0.003 µM): 85.5% and 93.3% and 84.1%; viability, T/C (compound 0.00949 µM): 65.7% and 84% and 61.2%; viability, T/C (compound 0.03 µM): 58.1% and 70.1% and 45.5%; viability, T/C (compound 0.0949 µM): 42.9% and 49.1% and 37.1%; viability, T/C (compound 0.3 µM): 33.4% and 41.5% and 29.9%
COc1cc(C2c3cc4c(cc3C(OC3OC5COC(C)OC5C(O)C3O)C3COC(=O)C23)OCO4)cc(OC)c1O (stereo unspecified) | > 10 µM and 3.71 µM | 93% and 80.8% and 89.6% | 85.5% and 80.2% and 81.8% | 78.7% and 63.3% and 72.5% | 71.5% and 64% and 69.3% | 66.6% and 52.6% and 68.2% | 51.8% and 40% and 56.3% | 
COc1cc(Nc2ncc3c(n2)-c2ccc(Cl)cc2C(c2c(F)cccc2OC)=NC3)ccc1C(=O)O | 2.48 µM and 3.42 µM and 1.5 µM | 80.4% and 74.9% and 66.8% | 75.4% and 73.6% and 76.6% | 72.2% and 71.5% and 58.7% | 55.6% and 60.1% and 52.7% | 50% and 51.6% and 46% | 38.7% and 36% and 35.6% | 
